# System: the 3 viral strains (pooled HN)
# Design: species or system BALB/c mice
# Settings: mouse, in vivo
substance,measurement,value
N-palmitoyl D-erythro sphingosyl carbamoyl-spermine [CCS],immunogenicity of CCS alone compared to CCS/Chol as the vaccine carrier,no difference in immunogenicity
